In general, TD50 refers to the 50% point of the dose-response relation for the toxic effect studied. A word on the ED50: it is the dose at which the effect has come halfway, by size or by number of responders. In general, LD50 refers to the dose at which mortality reaches 50%. The term inhibition in vivo denotes the drop in the measured response relative to a control, in per cent.

Data on twelve compounds can be found in ChEMBL document CHEMBL5241104, “Reactive metabolites of the anticonvulsant drugs and approaches to minimize the adverse drug reaction” (Eur J Med Chem, 2021).

Data set [1] is described as follows: Toxicity in CF-1 mouse assessed as median toxic dose at ip administrated upto 4 hrs. Particulars: in vivo. Type of data set: organism-based.
A short description of data set [2]: Protective index, ratio of TD50 for toxicity in CF-1 mouse assessed as median toxicity dose at ip administration upto 4 hrs by rotorod test to ED50 for anticonvulsant activity in CF-1 mouse assessed as protection against maximal electroshock induced seizure at ip administration upto 4 hrs. The class given is organism-based. Particulars: in vivo, read-out: Ratio TD50/ED50. (In general: Falling from the rotarod earlier than controls is read as motor impairment.)

Data set [3] deals with Mus musculus. Nature of the data set: Anticonvulsant activity in mouse assessed as protection against 6-Hz induced seizure at ip administration upto 2 hrs. Type of data set: functional.
For data set [4], the system named is Mus musculus. Briefly: Anticonvulsant activity in CD-1 mouse assessed as protection against 6-Hz Psychomotor induced seizure at ip administration. The class given is functional.
The test system of data set [5] is Mus musculus. Nature of the data set: Anticonvulsant activity in mouse assessed as protection against Sc-pTZ induced seizure at ip administration for 5 mins. Type of data set: functional.
Data set [6] relates to Mus musculus. Briefly: Anticonvulsant activity in Swiss albino mouse assessed as protection against PTZ induced seizure at ip administration for 30 mins. Particulars: 0.5 h. Type of data set: functional.
Data set [7] in a line: Toxicity in Swiss albino mouse assessed as median toxicity dose at ip administration. Type of data set: organism-based. Particulars: in vivo.
The nature of data set [8]: Neurotoxicity in CD-1 mouse assessed as lethal dose at po administration for 30 mins. Type of data set: toxicity, organism-based. Particulars: in vivo.
Data set [9] is described as follows: Neurotoxicity in CD-1 mouse assessed as reduction in locomotor activity at 600 mg/kg,po administrated for 30 mins. Type of data set: toxicity, organism-based. Set-up: scale not given: the % may be the effect or the level left. Particulars: in vivo, 0.5 h.
For data set [10], the system named is Mus musculus. Nature of the data set: Anticonvulsant activity in CD-1 mouse assessed as protection against maximal electroshock induced seizure at po administration for 30 mins. Type of data set: functional. Particulars: CD-1, 0.5 h.
Data set [11] concerns Mus musculus. Briefly: Anticonvulsant activity in CD-1 mouse assessed as recovery time against maximal electroshock induced seizure at 300 mg/kg,po administrated for 30 mins. The class given is functional. Particulars: 0.5 h. For orientation: In the maximal electroshock model the usual endpoint is tonic extension of the hind limbs.
In data set [12] the test system is Mus musculus. Nature of the data set: Anticonvulsant activity in CD-1 mouse assessed as protection against PTZ induced seizure at po administration for 30 mins. Type of data set: functional. Particulars: CD-1, 0.5 h.
Data set [13] is described as follows: Neurotoxicity in CD-1 mouse assessed as reduction in locomotor activity at 300 mg/kg,po administrated for 30 mins. The class given is toxicity, organism-based. Set-up: scale not given: the % may be the effect or the level left. The note with it: in vivo, 0.5 h.
Data set [14] deals with Mus musculus. Nature of the data set: Anticonvulsant activity in CD-1 mouse assessed as recovery time against maximal electroshock induced seizure at 150 mg/kg,po administrated for 30 mins. Type of data set: functional. Particulars: 0.5 h.
For data set [15], the system named is Mus musculus. Nature of the data set: Anticonvulsant activity in CD-1 mouse assessed as recovery time against maximal electroshock induced seizure at 600 mg/kg,po administrated for 30 mins. The class given is functional. The note with it: 0.5 h.
In data set [16] the test system is Mus musculus. Nature of the data set: Anticonvulsant activity in Swiss mouse assessed as protection against Sc-PTZ induced seizure at ip administration. The class given is functional.
For data set [17], the system named is Mus musculus. Nature of the data set: Anticonvulsant activity against 3-MP induced Swiss mouse seizure model assessed as inhibition of clonic seizures at 50 mg/kg,ip administration for 30 mins. Type of data set: functional. The note with it: 0.5 h.
Data set [18] in a line: Toxicity in 3-MP induced Swiss mouse seizure model assessed as death at 50 mg/kg,ip administration for 30 mins. The class given is organism-based. The note with it: in vivo, read-out: Activity.
The test system of data set [19] is Mus musculus. Briefly: Anticonvulsant activity against bicuculline induced Swiss mouse seizure model assessed as inhibition of clonic seizures at 50 mg/kg,ip administration for 30 mins. The class given is functional. The note with it: 0.5 h.
Data set [20] in a line: Toxicity in bicuculline induced Swiss mouse seizure model assessed as death at 50 mg/kg,ip administration for 30 mins. The class given is organism-based. The note with it: in vivo, read-out: Activity.
A short description of data set [21]: Neurotoxicity in Swiss mouse assessed as median toxicity dose at ip administration by rotorod test. Particulars: in vivo. The class given is organism-based.
The test system of data set [22] is Mus musculus. Nature of the data set: Anticonvulsant activity against bicuculline induced Swiss mouse seizure model assessed as inhibition of tonic seizures at 50 mg/kg,ip administration for 30 mins. The class given is functional. Particulars: 0.5 h.
The subject of data set [23] is Mus musculus. Briefly: Anticonvulsant activity against 3-MP induced Swiss mouse seizure model assessed as inhibition of tonic seizures at 50 mg/kg,ip administration for 30 mins. Type of data set: functional. The note with it: 0.5 h.
The test system of data set [24] is Rattus norvegicus. Briefly: Anticonvulsant activity in Sprague-Dawley rat assessed as protection against pilocarpine induced epilepticus at po administration. Type of data set: functional.
Data set [25] has as its system Mus musculus. Nature of the data set: Anticonvulsant activity in Albino mouse assessed as protection against maximal electroshock induced seizure at ip administration. Type of data set: functional.
A short description of data set [26]: Protective index, ratio of TD50 for toxicity in Sprague-Dawley rat at po administration to ED50 for anticonvulsant activity in Sprague-Dawley rat assessed as protection against pilocarpine induced epilepticus at po administration. Type of data set: organism-based. Particulars: in vivo, read-out: Ratio TD50/ED50.
The subject of data set [27] is Rattus norvegicus. Briefly: Anticonvulsant activity in Sprague-Dawley rat assessed as protection against Sc-metrazol induced seizure at po administration. Type of data set: functional.
In data set [28] the test system is Mus musculus. Briefly: Anticonvulsant activity in Albino mouse assessed as protection against 6-Hz psychomotor induced seizure at ip administration. The class given is functional.
Data set [29] can be described thus: Neurotoxicity in Sprague-Dawley rat assessed as median toxic dose at ip administration. The class given is toxicity, organism-based. The note with it: in vivo.
Data set [30] deals with Mus musculus. Briefly: Anticonvulsant activity in Albino mouse assessed as protection against Sc-metrazol induced seizure at ip administration. The class given is functional.
In data set [31] the test system is Rattus norvegicus. Briefly: Anticonvulsant activity in Sprague-Dawley rat assessed as protection against Sc-Met induced seizure at po administrated for 30 mins. Type of data set: functional. The note with it: 0.5 h.
Data set [32] has as its system Rattus norvegicus. Briefly: Anticonvulsant activity in Sprague-Dawley rat assessed as protection against maximal electroshock induced seizure at po administrated for 30 mins. Type of data set: functional. The note with it: 0.5 h.
For data set [33], the system named is Rattus norvegicus. Briefly: Anticonvulsant activity in Sprague-Dawley rat assessed as protection against maximal electroshock induced seizure at po administration. The class given is functional.
For data set [34], the system named is Rattus norvegicus. Nature of the data set: Anticonvulsant activity in Sprague-Dawley rat assessed as protection against maximal electroshock induced seizure at ip administration for 0.25 hrs. The class given is functional.
Data set [35] relates to Rattus norvegicus. Nature of the data set: Anticonvulsant activity in Sprague-Dawley rat assessed as protection against hippocampal kindling induced seizure at ip administration for 0.25 hrs. The class given is functional.

Bounds are passed on as bounds.

On to `COC(=O)C1C(=O)C=C(Nc2cc(C)on2)CC1C` (stereo unspecified), for which the TD50 at 4 h in data set [1] was greater than 500 mg/kg. Moreover, in data set [2], the selectivity ratio at 4 h was greater than 7.3.
With `CCCC(COC(=O)Nc1ccc(S(N)(=O)=O)cc1)C(C)CC` (stereo unspecified), in the data set with Mus musculus [3], the ED50 came out at 74 mg/kg.
As to `CCCC(CCC)C(=O)O` [VALPROIC ACID], the ED50 with Mus musculus [4] is 131 mg/kg.
Take `CC(C)(C)NC(=O)C(c1cccc(Br)c1)N1Cc2cnnn2-c2cc(Cl)ccc2C1=O` (stereo unspecified): the Activity in the data set on Mus musculus [5] stood at 56.94%.
Turning to `CCCC(CCC)c1nnc(Nc2ccccc2)s1`, the ED50 with Mus musculus [6] came to 187 mg/kg. Moreover, the TD50 in [7] was determined as 419 mg/kg.
As for `CCCC(CCC)C(=O)Nc1ccccc1O`, the LD50 at 0.5 h in [8] was 937 mg/kg. Besides, the Activity in data set [9] was determined as 2.78%; in data set [13], 60%. Besides, the ED50 in the data set on Mus musculus [10] is 370 mg/kg; in the data set with Mus musculus [12], 348 mg/kg. The values for the Time in the data set on Mus musculus [11], in the data set with Mus musculus [14] and in the data set on Mus musculus [15] were 30.66 s, 93.26 s and 5.75 s, respectively.
In the case of `CN1C(=O)CC(=O)N(C)c2cc(NCc3ccc(F)cc3)ccc21`, the 50% effective dose (ED50) with Mus musculus [16] is 68 mg/kg. The inhibition in vivo at 50 mg/kg was 100% in the data set with Mus musculus [17], 80% in the data set on Mus musculus [19], 100% in the data set with Mus musculus [22] and 80% in the data set with Mus musculus [23]. Also, the results for the mortality at 0.5 h in data set [18] and in data set [20] were 20% and 70%, respectively. Besides, the TD50 in [21] was 164 mg/kg.
Consider `CCC1(C)CC(=O)NC1=O` (stereo unspecified) [ETHOSUXIMIDE], for which the ED50 in the data set with Mus musculus [4] was 222 mg/kg.
Turning to `CCCC(CC)C(=O)NOC` (stereo unspecified), the ED50 with Rattus norvegicus [24] stood at 200 mg/kg; in the data set on Mus musculus [25], 142 mg/kg; in the data set on Rattus norvegicus [27], 36 mg/kg; with Mus musculus [28] it was 50 mg/kg; in the data set with Mus musculus [30] it was 70 mg/kg. Besides, in data set [26], the selectivity ratio is greater than 5.5. For the same compound, in data set [29], the TD50 is 118 mg/kg.
As to `Cc1cc(C(=O)Nc2c(C)cccc2C)no1`, the ED50 in the data set on Rattus norvegicus [31] was greater than 250 mg/kg; with Rattus norvegicus [32] it was 5.5 mg/kg.
Consider `O=C1NC(c2ccccc2)(C2CC2)C(=O)N1CN1CCN(c2ccccc2)CC1` (stereo unspecified), for which the median effective dose (ED50) in the data set on Rattus norvegicus [33] was 5.29 mg/kg.
For `CCCC(CCC)C(=O)OCCN(C)C`, the values for the ED50 in the data set on Rattus norvegicus [34] and with Rattus norvegicus [35] were 73 mg/kg and 168 mg/kg, respectively.
